Measurements: the supplement of paper PMC10290057

Experiments:
HCT116 [1] = test: AC50 cell viability (CellTiter-Glo); higher = less potent; details: 48 h
HCT116 [2] = test: efficacy (fitted maximal change in viability relative to DMSO control); higher = less cytotoxic (negative = loss of viability); details: 48 h
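For AC50 cell viability (CellTiter-Glo) in this document: HCT116 colorectal carcinoma cells screened at five concentrations per compound, luminescent viability scaled between DMSO wells and empty wells on each plate, curves fitted per compound.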
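For efficacy (fitted maximal change in viability relative to DMSO control) in this document: Luminescence-based viability readout, five doses per compound, normalized against on-plate DMSO and empty-well controls, followed by dose-response curve fitting for every drug.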

SMILES	AC50 cell viability (HCT116 [1]) [µM]	efficacy (HCT116 [2]) [%]
COc1ccc(C(=O)c2c(C)n(CCN3CCOCC3)c3ccccc23)cc1 [Pravadoline]	1.32	-67.1
COc1ncc(Nc2ncc([C@H](C)N3CCN([S+](C)(=O)[O-])CC3)cc2-c2nc(C)nc(N)n2)cc1F [AMG-511]	5.9	-80.5
CCn1cc(-c2ccnc3[nH]c(-c4cccc(CN(C)C)c4)cc23)c(-c2ccc(NC(=O)N(C)C)cc2)n1	5.25	-101
CCCCC(C)(C)[C@H](O)/C=C/[C@H]1[C@H](O)CC(=O)[C@@H]1C/C=C\CCCC(=O)O [16,16-dimethyl PGE2]	20.9	-64.7
CO[C@H]1/C=C/O[C@@]2(C)Oc3c(C)c(O)c4c(c3C2=O)C2=NC3(CCN(CC(C)C)CC3)NC2=C(NC(=O)/C(C)=C/C=C/[C@H](C)[C@H](O)[C@@H](C)[C@@H](O)[C@@H](C)[C@H](OC(C)=O)[C@@H]1C)C4=O [Rifabutin]	23.5	-60
O=C(NCc1ccccc1)c1csc(Nc2ccncn2)n1 [Thiazovivin]	20.9	-84
CC(C)c1c(C(=O)Nc2ccccc2)c(-c2ccccc2)c(-c2ccc(F)cc2)n1CC[C@@H](O)C[C@@H](O)CC(=O)O [Atorvastatin calcium]	12.9	-63.9
C=CC(=O)Nc1cc2c(Nc3ccc(F)c(Cl)c3)ncnc2cc1OCCCN1CCOCC1 [Canertinib]	14.8	-116
CN(C)/N=N/c1nc[nH]c1C(N)=O [Dacarbazine]	10.5	-45.8
Cc1cc(CN2CCN(c3c(Br)cnc4[nH]c(-c5ccc(N6CCN(C)CC6)cc5)nc34)CC2)no1	5.25	-119
[2H]C([2H])([2H])C(O)([C@@H](C)/C=C/[C@@H](C)[C@H]1CC[C@H]2/C(=C/C=C3C[C@@H](O)C[C@H](O)C3)CCC[C@]12C)C([2H])([2H])[2H] [Paricalcitol-D6 (ABT-358)]	18.6	-54
NC1(CCC1)C2=CC=C(C=C2)C3=C(C=C/4C(=N3)\C=C/N5C(=O)N\N=C45)C6=CC=CC=C6 [MK-2206]	16.6	-122
COc1cc(N2CCN(C)CC2)ccc1Nc1ncc2c(n1)N(C)c1ccccc1C(=O)N2 [XMD8-87]	18.6	-92.7
CNC(=O)c1cc(Oc2ccc3nc(N[C@@H]4CCCC[C@H]4O)sc3c2)ccn1 [BLZ-945]	20.9	-41.8
CN(C)Cc1ccc([S+](=O)([O-])n2ccc(/C=C/C(=O)NO)c2)cc1 [Resminostat]	2.35	-103
Nc1ncnc2c1c(COc1cccc(Cl)c1)nn2C1CCOCC1	18.6	-37.2
Cc1nc(Nc2ncc(C(=O)Nc3c(C)cccc3Cl)s2)cc(N2CCN(CCO)CC2)n1 [Dasatinib]	14.8	-81.1
COc1ccccc1N1CCN(CCN(C(=O)C2CCCCC2)c2ccccn2)CC1	13.2	-31.7
Cc1ccc(C(=O)OCc2ccc([C@@H](CN)C(=O)Nc3ccc4cnccc4c3)cc2)c(C)c1 [Netarsudil]	8.11	-108
COc1ccc(Cn2ccc3ccc(C(=O)NO)cc32)cc1	16.6	-71.9
COc1ccc2c(c1OC)C(=O)O[C@H]2[C@H]1c2c(cc3c(c2OC)OCO3)CCN1C [Noscapine]	14.8	-55.1
CC1(COc2ccc3c(c2)ncn3-c2ccc3cccc(N4CCC(N)CC4)c3n2)COC1 [Crenolanib]	2.95	-104
Cn1c2ccccc2c2c3c(c4c5ccccc5n(CCC#N)c4c21)CNC3=O [Go-6976]	18.6	-63
Cc1cc(Nc2cc(N3CCN(C)CC3)nc(/C=C/c3ccccc3)n2)n[nH]1	5.9	-99.9
Cc1cnc(Nc2ccc(CN3CCOCC3)cc2)nc1Nc1cccc([S+](=O)([O-])NC(C)(C)C)c1 [TG-46]	2.63	-97.9
C[S+](=O)([O-])N1CCC(NC(=O)c2[nH]ncc2NC(=O)c2c(Cl)cccc2Cl)CC1 [NVP-LCQ195]	0.525	-64.2
CC(N[C@H]1CCCC[C@@H]1NC(=O)c1ccc(Cl)cc1)c1cccc2ccccc12 (stereo partly drawn) [Calhex-231]	9.34	-92.8
COC1=C(F)C=C\2C(=C1)\N=C/3NNC(=C3\N=C2C4=CC=CC=C4Cl)/C [R-1530]	14.8	-73.2
Cn1cc(-c2ccc(F)c(C(F)(F)F)c2)nc1C1CCN(c2ncnc3[nH]ncc23)CC1	16.6	-40.4
